Results on 1 molecule are retold here after US20180318196A1, “COMPOSITION FOR PROTECTING THE SKIN AGAINST THE EFFECTS OF POLLUTION AND USE THEREOF” (LUBRIZOL ADVANCED MATERIALS, INC., priority 2015, published 2018).

For this test, the system named is Normal Human Epidermal Keratinocytes from adult (NHEK). Briefly: Protection from damage induced by Urban Dust, MTT cell viability assay. It is filed as cell-based. The procedure: The capacity of protecting skin cell cultures from damage induced by Urban Dust (UD) is evaluated. The UD used is particulate matter (PMs, one of the major air pollutants with effects on the skin) collected in an urban area, Washington DC in 1976 and 1977, with an average particle size of 10.5 μm that contain polycyclic aromatic hydrocarbons (PAHs), polychlorinated biphenyl (PCBs), nitro-PAHs, chlorinated pesticides, dioxins and heavy metals: Damage is generated by the addition of UD to the culture medium and the protection effect from damage of the tested compounds is measured by a cell viability assay.
The viability is evaluated by MTT (3-[4,5-dimethylthiazol-2-yl]-2,5 diphenyl tetrazolium bromide), an absorbance-based cell viability method. Live cells present mitochondrial dehydrogenase activity that reduces the dye MTT to an insoluble blue colored product easily detected by absorbance, reflecting viable cells. […]
Then, cellular viability is evaluated. […] Then, plates are shaken for 5 minutes at room temperature protected from light and absorbance read at 570 nm with wavelength correction at 630 nm, using a Microplate Absorbance Reader (Clariostar®,BMG LabTech).
The percentage of cell viability for each condition is calculated with respect to control without pollutants (cells treated with medium alone and not treated with UD). […]

Molecules are shown by their SMILES. Like-named read-outs stand apart in the source and are kept apart here.

Consider `COc1cc2c(cc1O)CCC(C)(C)O2` [LPCH, 7-methoxy-2,2-dimethylchroman-6-ol], for which the viability at 50 µg/mL runs as follows: (read-out: Relative Cell Viability with Respect To Control without pollutants (%) (MEAN ± SEM), 50 μg/mL LPCH + 50 μg/mL UD) 85.8 ± 3.68%; (read-out: Relative Cell Viability with Respect To Control without pollutants (%) (MEAN ± SEM), 50 μg/mL LPCH + 100 μg/mL UD) 79 ± 3.21%.
